From ChEMBL document CHEMBL6121035, “An Unexpected Activity of a Minor Cannabinoid: Cannabicyclol (CBL) Is a Potent Positive Allosteric Modulator of Serotonin 5-HT1A Receptor” (J Nat Prod, 2025)
Calls of active or inactive are those of the source. No cut-off for these calls is given here.

Experiments:
[1] = molecular target: T1, 5-hydroxytryptamine receptor 1A (Homo sapiens) (UniProt P08908); assay: Positive allosteric modulation of N-terminal FLAG-tagged Rluc8-fused human 5-HT-1A expressed in HEK293T cells by BRET assay relative to control; type: cell-based
T1 sequence (whole entry): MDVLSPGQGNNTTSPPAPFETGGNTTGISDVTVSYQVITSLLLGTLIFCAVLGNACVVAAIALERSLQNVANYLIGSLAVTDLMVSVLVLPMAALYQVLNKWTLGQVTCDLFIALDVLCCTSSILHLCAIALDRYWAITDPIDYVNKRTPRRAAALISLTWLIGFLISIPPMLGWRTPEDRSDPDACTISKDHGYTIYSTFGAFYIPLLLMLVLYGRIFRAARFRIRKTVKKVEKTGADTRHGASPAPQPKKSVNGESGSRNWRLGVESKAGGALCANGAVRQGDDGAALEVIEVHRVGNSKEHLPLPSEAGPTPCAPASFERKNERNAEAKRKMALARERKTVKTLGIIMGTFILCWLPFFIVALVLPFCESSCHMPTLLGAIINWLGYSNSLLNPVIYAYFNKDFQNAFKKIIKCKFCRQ

[2] = molecular target: Cannabinoid receptor 1 (Homo sapiens) (UniProt P21554); assay: Displacement of [3H]-CP55940 from cannabinoid CB1 receptor (unknown origin) at 1 to 10 uM incubated for 90 mins by Radioligand binding assay; details: dose 1-10 µM
[3] = Stability of compound in MCT oil at 40 degreeC measured upto 2 months by HPLC-DAD analysis; type: physicochemical; details: 1460 h
Spike glycoprotein = Spike glycoprotein (Severe acute respiratory syndrome coronavirus 2, UniProt P0DTC2); assay: Inhibition of SARS-COV-2 spike protein
[4] = molecular target: Cannabinoid receptor 2 (Homo sapiens) (UniProt P34972); assay: Displacement of [3H]-CP55940 from cannabinoid CB2 receptor (unknown origin) at 1 uM incubated for 90 mins by Radioligand binding assay
[5] = molecular target: T1, 5-hydroxytryptamine receptor 1A (Homo sapiens); assay: (§1) Positive allosteric modulation of PK-tagged human 5-HT-1A receptor expressed in CHO-K1 cells assessed as receptor activation at 4 uM in presence of serotonin preincubated with compound for 30 mins followed by serotonin addition and measured after 90 mins by measuring beta arrestin recruitment by chemiluminescence based envision reader analysis relative to control; type: functional, cell-based; details: filed as positive allosteric modulator
[6] = molecular target: T1, 5-hydroxytryptamine receptor 1A (Homo sapiens); assay: Agonist activity at PK-tagged human 5-HT-1A receptor expressed in CHO-K1 cells at > 0.5 uM incubated for 90 mins by measuring beta-arrestin recruitment by PathHunter assay; type: functional, cell-based; details: filed as agonist
[7] = molecular target: T1, 5-hydroxytryptamine receptor 1A (Homo sapiens); assay: (§2) Positive allosteric modulation of PK-tagged human 5-HT-1A receptor expressed in CHO-K1 cells assessed as receptor activation at 50 nM in presence of serotonin at 40 nM preincubated with compound for 30 mins followed by serotonin addition and measured after 90 mins by measuring beta arrestin recruitment by chemiluminescence based envision reader analysis; type: functional, cell-based; details: filed as positive allosteric modulator, time 120.0 min
[8] = molecular target: T1, 5-hydroxytryptamine receptor 1A (Homo sapiens); assay: Displacement of [3H]-8-Hydroxy-DPAT from 5-HT-1A receptor (unknown origin) at 1 uM incubated for 90 mins by Radioligand binding assay relative to control
[9] = molecular target: T1, 5-hydroxytryptamine receptor 1A (Homo sapiens); assay: as §2, with “> 10 uM” for “50 nM”, “175” for “40”; type: functional, cell-based
[10] = molecular target: T1, 5-hydroxytryptamine receptor 1A (Homo sapiens); assay: as §1, with “activation at 1 uM in” for “activation at 4 uM in”, “of serotonin at 175 nM preincubated with” for “of serotonin preincubated with”; type: functional, cell-based; details: filed as positive allosteric modulator
[11] = molecular target: T1, 5-hydroxytryptamine receptor 1A (Homo sapiens); assay: Agonist activity at PK-tagged human 5-HT-1A receptor expressed in CHO-K1 cells at 12 uM incubated for 90 mins by measuring beta-arrestin recruitment by PathHunter assay relative to control; type: functional, cell-based
[12] = Stability of compound at 25 degreeC measured upto 2 months by HPLC-DAD analysis; type: physicochemical; details: 1460 h
[13] = molecular target: T1, 5-hydroxytryptamine receptor 1A (Homo sapiens); assay: as §2, with “activation” for “activation at 50 nM”, “serotonin” for “serotonin at 40 nM”; type: functional, cell-based; details: filed as positive allosteric modulator, dose 0.6-12000 nM
[14] = molecular target: T1, 5-hydroxytryptamine receptor 1A (Homo sapiens); assay: as §1, with “12” for “4”, “analysis” for “analysis relative to control”; type: functional, cell-based

Cannabinoid receptor 2 (Homo sapiens), sequence (P34972 whole entry): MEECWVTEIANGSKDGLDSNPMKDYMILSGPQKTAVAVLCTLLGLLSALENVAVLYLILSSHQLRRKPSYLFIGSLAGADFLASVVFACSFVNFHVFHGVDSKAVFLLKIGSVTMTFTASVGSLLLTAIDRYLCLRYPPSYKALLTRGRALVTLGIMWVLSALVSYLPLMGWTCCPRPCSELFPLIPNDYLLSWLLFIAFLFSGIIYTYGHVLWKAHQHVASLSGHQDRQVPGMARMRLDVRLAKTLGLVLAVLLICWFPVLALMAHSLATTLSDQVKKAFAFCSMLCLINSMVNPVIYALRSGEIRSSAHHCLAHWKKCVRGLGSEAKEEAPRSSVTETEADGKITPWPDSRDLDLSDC
Cannabinoid receptor 1 (Homo sapiens), sequence (P21554 whole entry): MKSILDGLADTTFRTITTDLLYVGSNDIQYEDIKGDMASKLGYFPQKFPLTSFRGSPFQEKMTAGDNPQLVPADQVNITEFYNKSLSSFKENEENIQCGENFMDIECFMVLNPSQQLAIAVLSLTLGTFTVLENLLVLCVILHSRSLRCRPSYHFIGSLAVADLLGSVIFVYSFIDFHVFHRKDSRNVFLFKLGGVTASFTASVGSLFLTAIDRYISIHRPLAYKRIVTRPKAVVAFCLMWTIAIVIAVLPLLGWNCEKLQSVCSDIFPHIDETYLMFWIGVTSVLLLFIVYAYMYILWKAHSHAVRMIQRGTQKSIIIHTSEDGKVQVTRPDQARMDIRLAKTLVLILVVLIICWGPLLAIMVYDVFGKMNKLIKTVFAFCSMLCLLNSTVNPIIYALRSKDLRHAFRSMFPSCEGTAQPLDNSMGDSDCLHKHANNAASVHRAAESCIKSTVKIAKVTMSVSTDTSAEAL

SMILES | Activity [1] [%] | Activity [2] | Stability [3] | EC50 (Spike glycoprotein) [µM] | Activity [4] | Activity [5] [%] | Activity [6] | Activity [7] | Activity [8] [%] | Activity [9] | Activity [10] [%] | Activity [11] [%] | Stability [12] | Activity [13] | Activity [14]
O=C(c1cccc2ccccc12)c1cn(CCCCCF)c2ccccc12 | 21 | – | – | – | – | – | – | – | – | – | – | – | – | – | –
CCCCCn1cc(C(=O)c2cccc3ccccc23)c2ccccc21 | 12 | – | – | – | – | – | – | – | – | – | – | – | – | – | –
CCCCCc1cc(O)c2c(c1)OC1(C)CCC3C1C2C3(C)C (racemic) [CANNABICYCLOL] | – | inactive | Stable | 10.8 | inactive | 80 | Active; Minimal Agonist Activity Observed | Active | 20 | inactive | 100 | 15 | Stable | Dose-dependent-effect | inactive
